Legend:
[1] = target: T1, Glutathione transferase epsilon 2 (AgGSTε2) (Anopheles gambiae, UniProt Q9GPL8); experiment: time- and concentration-dependent inactivation of purified enzyme, GST activity (CDNB/GSH) assay; KI […], kinact […] min^-1; assay type: biochemical
T1 construct: recombinant AgGSTε2 expressed from pET3a in E. coli BL21 (DE3) pLysS
T1 sequence (Q9GPL8 1-221): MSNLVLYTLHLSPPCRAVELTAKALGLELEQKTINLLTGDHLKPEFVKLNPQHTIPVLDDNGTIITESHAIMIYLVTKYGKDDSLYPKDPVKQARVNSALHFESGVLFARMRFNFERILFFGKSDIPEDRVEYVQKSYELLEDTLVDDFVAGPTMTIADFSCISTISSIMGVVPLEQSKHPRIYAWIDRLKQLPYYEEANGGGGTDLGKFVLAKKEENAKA

[2] = target: T1, Glutathione transferase epsilon 2 (AgGSTε2); experiment: time-dependent inactivation of purified enzyme at […] (positive control), half-life […] min; assay type: biochemical

KI (inactivation) [1] [µM] | Structure (SMILES) | time-dependent inactivation of purified enzyme at 25 μM (positive control), half [2] [min]
7.5 ± 2.1 | O=c1ccc2c3c(c(O)cc2o1)C[C@@H](O)[C@@H](c1ccc(O)c(O)c1)O3 [Tral 1, epiphyllocoumarin] | 
 | C=C(CC)C(=O)c1ccc(OCC(=O)O)c(Cl)c1Cl [ETA, ethacrynic acid] | 22

— article PMC4746303, “Inactivation of Anopheles gambiae Glutathione Transferase ε2 by Epiphyllocoumarin” (Biochemistry Research International, 2016)
